From a melting point compilation (Tetko et al.; mined from patent text by program, amines drawn as free bases though some values may be those of a salt)

SMILES | melting point
O=C1c2cccc3c(Cl)c(Cl)cc(c23)C(=O)N1O | 267 to 269 °C
O=C1Nc2ccc([N+](=O)[O-])cc2/C1=C(/Nc1ccc(CN2CCCC2)cc1)c1ccccc1 | 45 to 50 °C
Cn1c(=O)c(Oc2c(F)cccc2F)cc2cnc(S(C)(=O)=O)nc21 | 215 to 216 °C
Cc1sc(N)c(C(=O)c2ccc(Cl)cc2)c1CN1CCN(c2ccc(F)cc2)CC1 | 70 to 72 °C
OCCN1CCN(C2Cc3ccccc3Sc3cc(F)c(Cl)cc32)CC1 (stereo not given) | 150 to 152 °C
Cc1c(C)c(C)c(C2C(=O)Oc3c2cc(C(C)(C)C)cc3C(C)(C)C)c(C)c1C (stereo not given) | 185 to 190 °C
CC=CCn1c(C)c(C)c2cnnc(OCc3c(F)cccc3F)c21 | 85 to 94 °C
CCCCCCCCCCNC(=O)Nc1ccccc1C(=O)NC1CCN(C(c2ccccc2)c2ccccc2)CC1 | 204 to 206 °C
CN1CCN(C2c3ccccc3-c3[nH]c(=O)c(=O)[nH]c32)CC1 (stereo not given) | 263 to 265 °C
CCCCCCCCCCCCCCCCSCC(CNS(=O)(=O)CCCCl)NC(=O)NC (stereo not given) | 79 to 80 °C
O=C(O)CN1C(=O)C(=Cc2c[nH]c3ccccc23)SC1=S | > 300 °C
CC(c1ccc(-c2ccccc2)c(F)c1)c1cc(N)on1 (stereo not given) | 122 to 123 °C
O=C(O)c1c(C(F)(F)F)nn(-c2c(Cl)cc(C(F)(F)F)cc2Cl)c1C(F)(F)F | 185 to 190 °C
COc1ccc(-c2nnc(N3CCC(O)CC3)nc2-c2ccc(OC)cc2)cc1 | 105 to 108 °C
COC(=O)c1cc(OC)c(N(C)C(C)=O)c(OC)c1 | 115 to 116 °C
CC(C)(O)Cc1c(Br)cnc2c(NC(=O)c3c(Cl)cccc3Cl)cccc12 | 260 to 262 °C
COc1ccc(-c2[nH]nc3c2C(=O)c2c(NC(=O)Cc4ccccc4Cl)cccc2-3)cc1 | 300 °C
COc1ccc(C2(c3ccc(N(C)C)cc3)OC(=O)c3cc(N(C)C)ccc32)c(OC)c1 (stereo not given) | 192 to 194 °C
CC(=O)C(=O)N[C@H](CO[N+](=O)[O-])c1ccccc1 | 76 to 77 °C
CCOC(=O)c1sc(Oc2ccc(Cl)cc2Cl)nc1-c1cccc(C(F)(F)F)c1 | 72 to 73 °C
CCNc1cn(-c2cncc(F)c2)nc1C | 85 to 86 °C
O=C(O)c1cn(-c2cccc(F)c2)c2cc(Cl)ccc2c1=O | 284 to 286 °C
CC(C)(Oc1ccc(CCC(=O)c2ccc(-c3ccc(C(F)(F)F)cc3)s2)c(Cl)c1Cl)C(=O)O | 153 to 154 °C
CC(CCOc1cccc(=O)n1O)CC(C)(C)C (stereo not given) | 130 to 131 °C
Cc1c2ccccc2c(-c2ccc(O)cc2)c2c1sc1ccccc12 | 184 to 185 °C

SMILES | melting point
CS(=O)(=O)c1ccc(-c2cc(CCO[N+](=O)[O-])nn2C2CCCCC2)cc1 | 117 °C
Cc1cc([N+](=O)[O-])nc(C)c1C(N)=O | 179 to 180 °C
Cc1ccc(S(=O)(=O)OCC2Cc3c(C)c(Cl)cc(C(C)C)c3O2)cc1 (stereo not given) | 103 to 105 °C
Cc1ccccc1C1CC(=O)CC(c2ccccc2C)N1C (stereo not given) | 155 to 157 °C
CCc1cc(NC(=O)c2nnn(Cc3ccccc3)n2)c(O)c(C(C)=O)c1 | 159 to 161 °C
CCCC(=O)c1cnc2c(C)cccc2c1Nc1ccc(Cl)cc1C | 166 to 167 °C
COc1cccc(Nc2cccc3c2C(=O)N(C2CCC(=O)NC2=O)C3=O)c1 (stereo not given) | 210 to 212 °C
CC(C)(C)NC(=O)c1ccc(Br)cc1 | 126 to 128 °C
CC(C)SN(c1ccccc1)P(=O)(c1ccccc1)c1ccccc1 | 148 to 150 °C
CN(c1cccc2c(Cl)c(-c3nccs3)[nH]c12)S(=O)(=O)c1cccs1 | 222 to 223 °C
CC(C)NNc1ncnc2c1cnn2C | 57 °C
CCCCCC1=CC(=O)C2=C(OC(C)(C)c3ccc(C)cc32)C1=O | 53 to 54 °C
CN(CCc1ccccc1)C1CCN(C(=O)c2ccc(-n3cncn3)nc2)CC1 | 85 to 86 °C
COc1cc2cc(CO)cc(-c3ccnc(Cl)c3)c2cc1OC | 115 to 118 °C
CNC(=O)C(C)(C)N(OC(C)(C)C#N)C(C)(C)C | 96 to 101 °C
CS(=O)(=O)CCNC(=O)c1cccc(-c2ccc3c(c2)C(c2ccc(Cl)cc2Cl)CC3)c1 (stereo not given) | 193 to 194 °C
O=C1Nc2ccccc2SC1CCCCCl (stereo not given) | 111 to 112 °C
CC(=NOCC(N)=O)c1ccc(Cl)c(Cl)c1 | 111 to 112 °C
O=c1[nH]c2cscc2c(=O)n1CCN1CCN(c2ccc(Cl)cc2)CC1 | > 250 °C
Fc1ccc(Nc2c3ccccc3nc3ccccc23)cc1 | 184 to 196 °C
COC(=O)Cc1ccc(C(F)(F)F)cc1[N+](=O)[O-] | 104 to 105 °C
Cc1ccc(S(=O)(=O)OCCN(CCOS(=O)(=O)c2ccc(C)cc2)Sc2ccccc2[N+](=O)[O-])cc1 | 91 to 93 °C
O=C(O)CCc1cn(Cc2ccc(OCc3csc(-c4ccncc4)n3)cc2)cc1-c1ccccc1 | 149 to 150 °C
COC(=O)c1ccccc1-c1nn[nH]n1 | 132 to 135 °C
C=CC(C)(C)OC(=O)c1c(C)nc2c(cnn2CCCCC)c1N | 77.7 to 78.5 °C

SMILES | melting point
O=[N+]([O-])c1ccc(N2CCN3CCC2CC3)nc1 | 143 to 146 °C
Cc1cc(C)nc(NC(=O)NS(=O)(=O)c2c([N+](=O)[O-])ccc3c2CCC3)n1 | 172 °C
CC(C)C(C(=O)O)c1ccc(Cl)cc1 (stereo not given) | 88 to 89 °C
COc1ccc(C2C3=C(COC3=O)Nc3ccc4cc(C)[nH]c4c32)c(F)c1 (stereo not given) | 205 to 207 °C
CC(Oc1ncn(-c2cccc(F)c2)n1)C(N)=O (stereo not given) | 156 to 158 °C
CCCCCCCCCCCc1nnc2n1-c1ccccc1C(c1ccc(Cl)cc1)NC2 (stereo not given) | 94 to 95 °C
CC(=O)NCC(=O)c1cc(OC(C)=O)c(OC(C)=O)c([N+](=O)[O-])c1 | 121 to 124 °C
COC(=O)CCCCNC(=O)[C@H](Cc1ccccc1)NC(=O)OC(C)(C)C | 98 to 100 °C
Cc1noc(NS(=O)(=O)c2cccc([N+](=O)[O-])c2)c1Br | 151 to 153 °C
Cc1ccc(S(=O)(=O)OCCc2cc3c4ccccc4[nH]c(=O)n3n2)cc1 | 194 to 196 °C
NCCCCCCCCOc1cccc2ccccc12 | 90.5 to 92 °C
O=C(O)Cc1c(-c2ccccc2)nn(-c2cccnc2)c1-c1ccccc1 | 185 to 187 °C
CS(=O)(=O)c1ccc(C(CC2CCCCC2)C(=O)O)cc1 (stereo not given) | 139 to 143 °C
COc1cc(C#N)ccc1C=NO | 170 to 171 °C
CC1(C)Oc2ccc(S(C)(=O)=O)cc2[C@@H](N2CCSC2=NC#N)[C@@H]1O (relative stereo) | 304 to 307 °C
CC(=O)Nc1ccc(S(=O)(=O)Cc2cccc(OC(C)=O)c2)c2cccnc12 | 179 to 182 °C
N#Cc1ccc(OCc2ccncc2)cc1OC(C(=O)O)c1ccccc1Cl (racemic) | 225 to 226 °C
CC1N=C(c2cccnc2)NC1=O (stereo not given) | 238 to 241 °C
CCCCCCCCCCCCNC(=O)OCc1ccc(OC(C)=O)c(OC)c1 | 54 to 56 °C
N#CC1CC2CCC(C1)N2Cc1ccccc1 (stereo not given) | 119 to 120 °C
CN1CC(NC(=S)NC(=O)c2ccccc2)CC2c3cccc4[nH]cc(c34)CC21 (stereo not given) | 224 to 225 °C
CCOc1ccc(-c2ccc3c(c2)C=C(C(=O)Nc2ccc(CN(C)C4CCOCC4)cc2)CCS3(=O)=O)cc1OCC | 224 to 226 °C
C=CCOP(=O)(OCC=C)C(N)=O | 91 to 94 °C
O=C(O)CCOCC(I)=C(I)I | 115 to 117 °C
COc1ccc(N2C(=O)C(=O)N(c3ccccc3)C2=O)cc1 | 129 to 131 °C

SMILES | melting point
O=C(NCc1ccccn1)Nc1cc(N2CC(c3cccs3)OC2=O)ccn1 (stereo not given) | 187 to 188 °C
CCCCCCOC1=c2ccc3c(c2=C(c2ccc4c(c2)OCO4)C(C)(C(=O)OC)C1(C)C(=O)OC)OCO3 (stereo not given) | 110 to 111 °C
COc1ccc(-c2nc(CCl)nc3sc(C)c(C)c23)cc1OC | 117 to 118 °C
CCc1nnc2c(N(C(C)=O)C(C)=O)nc3ccccc3n12 | 157 to 159 °C
COc1nc2cc(Cl)c(Cl)cc2nc1OC | 144 to 146 °C
C[Si](C)(C)c1cccc(Cl)c1C(=O)O | 129 to 131 °C
CCCCc1oc2ccc(C(=O)OC(C)C)cc2c1C(=O)c1ccc(OS(=O)(=O)C(F)(F)F)cc1 | 100 to 101 °C
COC(=O)CCc1cnoc1-c1ccc(Cl)c(F)c1 | 53 to 54 °C
COc1cc(-c2nc3ccc(OC(F)(F)F)cc3[nH]2)ccc1O | 188 to 190 °C
c1cnc2ccc(Cn3nnc4ccc(-c5cn[nH]c5)nc43)cc2c1 | 215 to 218 °C
COCC1OC(n2cnc3c(N)nc(Cl)nc32)C(O)C1O (stereo not given) | 200 to 202 °C
Cc1ccc(S(=O)(=O)NC(=O)N2C(=O)C(c3ccccc3)N2C(c2ccccc2)c2ccccc2)cc1 (stereo not given) | 154 to 156 °C
Cc1c(-c2ccc(C=CC(=O)OC(C)(C)C)cc2)nc2n1CCc1ccccc1C2OC1CCN(C)CC1 (stereo not given) | 185 °C
N#Cc1cc[nH]c1-c1ccc(Cl)cc1 | 165 to 166 °C
O=C(c1ccccc1C(c1ccc(O)cc1)c1ccc(O)cc1)N1CC2CCC(CC2)C1 | 164 to 166 °C
O=c1c(Cl)c(Cl)cnn1-c1ccc(Cl)cc1F | 158 °C
COc1ccnc(N2CCN(C(=O)c3ccsc3)CC2)n1 | 90 to 92 °C
Cc1cncc(C)c1-c1c(C)cc(C=Cc2cc(C(C)(C)C)c(O)c(C(C)(C)C)c2)cc1C | 234 to 235 °C
COc1cccc([C@H]2O[C@H](CC(N)=O)C(=O)N(CC(C)(C)C)c3ccc(Cl)cc32)c1OC | 170 to 172 °C
NC(CC(=O)O)c1ccc(Br)cc1 (stereo not given) | 234 °C
COc1ccc(C2=NN(c3ccc(Cl)cc3)C(=O)[C@H]3CC=CC[C@@H]23)cc1OC (relative stereo) | 140 to 141 °C
CCC1c2cccn2-c2ccc(F)cc2N1S(=O)(=O)c1ccc(OC)c(C)c1 (stereo not given) | 164 to 166 °C
O=C(CC(C(=O)O)C1CCCCC1)Nc1cccc(/C=C/c2nc(C3CCC3)cs2)c1 (stereo not given) | 205 to 207 °C
CCOC(=O)Cc1csc(NC(=S)Nc2cc(Cl)ccc2C)n1 | 177 to 179 °C
OC1COC(n2c(Cl)nc3cc(Cl)c(Cl)cc32)C(O)C1O (stereo not given) | 184 °C
